# Data reported in patent US9428732B2, “Compositions and methods for differentiating pluripotent stem cells into primitive blood cells and uses thereof” (Primorigen Biosciences, Inc., priority 2011, dated 2016).
# Experiments:
# [1] = system: NOD.Cg-Prkdc^scidI12rg^tm1Wjl/SzJ mice; test: Pluripotent stem cell derived hematopoietic cell transplantation, engraftment; type: in vivo; details: Differentiation Medium 1 (containing DEAB) supplemented with the molecule; studies underway, predicted
# Protocol: Single-cell suspensions of the pluripotent stem cell differentiation cultures described herein were injected into sublethally irradiated (325 rad) NOD.Cg-Prkdc^scidI12rg^tm1Wjl/SzJ mice (JAX, Bar Harbor, Me., www.jax.org) via tail vein injections, intrafemoral injection, or cardiac injection. Peripheral blood was harvested at times indicated via tail vein or retro-orbital eye bleed or cardiac puncture on anesthetized mice. Bone marrow and spleen cells were harvested at the terminal stage of the transplant experiment. Bone marrow cells were isolated via pestle mortar crushing of bone followed by rinsing and 70 micron filtering. Cells were analyzed by FACS, CFU assay, or transplanted serially into secondary and tertiary mice. FACS analysis for the human pan hematopoietic marker CD45, progenitor marker CD34, myeloid markers CD11b, CD15, CD33 and lymphoid markers CD19, CD56 and CD132, and erythroid markers CD235. When erythrocytes were not being analyzed, the red cells were lysed using ammonium chloride solution (0.8% NH4Cl with 0.1 mM EDTA) (STEMCELL Technologies, Vancouver, BC), spun, and stained with antibodies against the above-mentioned markers. All animal experiments were conducted in accordance with Institutional Animal ethical use protocols.
# We have confirmed short-term engraftment and reconstitution ability of hPSC-derived HSCs produced as described in Example 1, by injecting them into sublethally irradiated (325 rad) NOD.Cg-Prkdc^sicdI12rg^tm1Wjl/SzJ mice (JAX, Bar Harbor, Me., www.jax.org) via tail vein injections, intrafemoral injection, or cardiac injection. We transplanted NOD.Cg-Prkdc^scidI12rg^tm1Wjl/SzJ mice with 3×10^6 unsorted cells or 5000 FACS sorted phenotypic HSCs (CD45+, CD43+, CD34+, CD38−, CD90+, CD45RA−) from differentiations using Differentiation Medium 1 medium not including with DEAB (Control) and Differentiation Medium 1 medium including DEAB (DEAB HSCs). […] Typical published values range from 0.1%-1.0%, including those obtained from our control where DEAB was not used to generate the HSCs (0.34%±0.1%).
# [2] = system: pluripotent stem cell differentiation cultures; test: Enzyme activity for protection against reactive oxygen species; type: cell-based, human; details: added independently to Differentiation Medium 1: sodium selenite 100 nM, butein 10 uM
# From the text: (§1) It has been shown that DS DNA breaks reduce transplant efficiency of repopulating HSCs. In vitro derived blood from pluripotent stem cell has high levels of DNA damage. Inhibition of DNA damage and the DNA damage response, from reactive oxygen species (ROS) or other sources of damage (radiation, chemical etc) in pluripotent stem cell differentiation systems will decrease DNA damage and increase hematopoietic cell number, repopulating ability and increase the differentiation potential of the cells (i.e. expansion of downstream lineages). See Yahata et al. Blood, 2011, 118(11):2941-50). […] Adding sodium selenite (100 nM) and butein (10 uM) independently to Differentiation Medium 1 increased enzyme activity for protection against reactive oxygen species (ROS). […] See FIGS. 11A and 11B for sodium selenite and FIGS. 12A and 12B for butein. These studies are being expanded into dose response experiments from which we expect to identify optimal concentrations.
# [3] = system: pluripotent lines (ES, iPS); test: Additional molecules added to Differentiation Medium 1, FACS and flow cytometry; type: cell-based, human; details: for total number of cells: added to Differentiation Medium 1 (contains DEAB): LG101506 1 uM, sodium selenite 100 nM, valproic acid 1 mM
# Protocol: (§2) Cells from the differentiation cultures were collected at time points indicated and washed in phosphate-buffered saline (PBS) supplemented with 2% FBS. Adherent cells were individualized using TrypLE (Life Technologies, Carlsbad Calif.), passed through a 27.5-gauge needle and filtered through a 40-70 μm cell strainer (BD Falcon, San Diego, Calif., www.bdbiosciences.com). Cells were treated with 7-aminoactinomycin D (7AAD) before analysis, and positive cells were gated out of results. Cells were stained with fluorescence-conjugated antibodies for the hematopoietic stem and progenitor cell markers CD45, CD43, CD34, CD38, CD90; CD45RA. Cells were analyzed on a FACS Canto (BD, Franklin Lakes, N.J., www.bd.com).
# We have completed a number of studies to establish other molecules that may further improve the yields and phenotypes of hematopoietic cells derived using Differentiation Medium 1. Tested compounds were Cripto, LY2228820, valproic acid (VPA), sodium selenite, and butein. In all instances, each molecule below was supplemented into Differentiation Medium 1 to study their effect in concert with DEAB. All control experiments for these molecules were cells differentiated using Differentiation Medium 1 (which already contains DEAB). The data we report below for these molecules illustrates how they may improve the yield of hematopoietic progenitors and phenotypic stem cells measured by FACS, flow cytometry, and CFU assays. […] The in vivo engraftment studies to confirm this for these molecules are underway.
# as §1
# From the pluripotent stem cells differentiated with Differentiation Medium 1 supplemented with 1 mM of valproic acid, we see that all CD34+CD38− cells were 100% CD90+. […] Engraftment studies as described are also being conducted.
# [4] = system: pluripotent stem cells (H1 ES cells and CB1 iPS cells); test: CFU assay of cells differentiated in Differentiation Medium 1 plus additional molecule; type: cell-based, human; details: for size of CFU colonies: in the present system
# Protocol: FIG. 14 depicts myeloid CFU cell count data for cells differentiated from pluripotent stem cells (H1 ES cells and CB1 iPS cells) in the presence of DEAB and each of Cripto (500 ng/ml), LY2228820 (shown as “LY222820”, 100 nM), Activin A, valproic acid (VPA, 1 mM), sodium selenite (100 nM), and butein (10 μM).
# The differentiation cultures were trypsinized at the indicated time points and single-cell suspensions were generated following trypsinization. For the Colony Forming Unit (CFU) assays using methyl cellulose cultures, 25% of the cells were plated in 2 ml of MethoCult H4435 (STEMCELL Technologies, Vancouver, BC) in six-well plates. Alternatively, sorted CD45+, CD43+, CD34+, 7AAD-cells were sorted and plated at 500 cells per 2 ml Methocult media. Cells were incubated for 14 days in a humidified incubator at 37° C. with 5% CO2 and evaluated for colonies by bright-field microscopy (Zeiss (Oberkochen, Germany, www.zeiss.com) Axiovert 200 with a Zeiss Axiocam), Cells were resuspended in PBS supplemented with 2% FBS. For the lymphoid myeloid differentiation assays, either CD45+, CD43+, CD34+, 7AAD-hematopoietic progenitors, or CD45+, CD43+, CD34+, CD38−, CD90+, CD45RA− phenotypic HSCs were plated at 20-40 cells per well onto OP9 and OP9delta feeder lines for B-cell and T-cell differentiation, respectively, as previously described (Nozad Charoudeh H, Tang Y, Cheng M, Cilio C M, Jacobsen S E, Sitnicka E., Identification of an NK/T cell-restricted progenitor in adult bone marrow contributing to bone marrow- and thymic-dependent NK cell, Blood, 2010 Jul. 15; 116(2):183-92. NK cell differentiation as well as myeloid cell differentiation was also detected in this differentiation system. FACS analysis was performed 4-6 weeks after plating for markers of lymphoid cell differentiation with the markers indicated. Similar cell sortings were performed for single cell Terasaki plate assays of myeloid differentiation and expansion using StemSpan media (STEMCELL Technologies, Vancouver, BC) supplemented with TPO, SCF, FLT3, IL3, GM-CSF. Colony size was estimated by microscopy.
# We have completed a number of studies to establish other molecules that may further improve the yields and phenotypes of hematopoietic cells derived using Differentiation Medium 1. Tested compounds were Cripto, LY2228820, valproic acid (VPA), sodium selenite, and butein. In all instances, each molecule below was supplemented into Differentiation Medium 1 to study their effect in concert with DEAB. […] The data we report below for these molecules illustrates how they may improve the yield of hematopoietic progenitors and phenotypic stem cells measured by FACS, flow cytometry, and CFU assays. […]
# [5] = system: human ES cells; test: Norepinephrine added to Differentiation Medium 1, flow cytometry; type: cell-based
# Protocol: as §2
# We conducted experiments to reveal if human embryo AGM region-harvested cells generate neurospheres in culture to confirm the presence of neural crest cells in the AGM region. We further completed some experiments to identify a component secreted from the neural crest cells that may be involved in definitive hematopoiesis. We harvested human embryo AGM region tissue and, using fluorescent labeled antibodies specific for neural crest cells, were able to identify the presence of neural crest cells in the AGM hematopoietic niche. […] Hypothesizing norepinephrine as a potential effector secreted from the neural crest cells, we tested it for its ability to further increase progenitor and phenotypic stem cell yields when added to Differentiation Medium 1 at a concentration of 10 uM or 300 uM. Human ES and iPS cells were differentiated to progenitors and phenotypic stem cells with Differentiation Medium 1 as described. The only difference is that 10 uM or 300 uM of norepinephrine was added to Differentiation Medium 1. Cells were then harvested as described and subjected to flow cytometry and FACS analysis using fluorescently labeled antibodies for CD45, CD43, CD34, CD38, CD90, CD45RA as described. […] Given the verified presence of neural crest cells in the AGM niche, we are confident that these cells play a role in establishing definitive hematopoiesis in the developing embryo. As such, long term engraftment and reconstitution ability of hematopoietic progenitors and phenotypic stem cells produced from iPS and ES cells differentiated with Differentiation Medium 1 plus norepinephrine as described above are currently underway. The engraftment and reconstitution studies will be conducted as described by the protocol outlined above in the Materials and Methods.
# [6] = system: H1 ES cells; test: LY2228820 added to Differentiation Medium 1, flow cytometry, ES cells; type: cell-based, human; details: 100 nM LY2228820; FIG. 8A
# Protocol: as §2
# (§3) We conducted experiments to determine whether the p38 inhibitor LY2228820 could further increase hematopoietic progenitor and phenotypic stem cell outputs by acting in concert with DEAB when added to Differentiation Medium 1. Human ES and iPS cells were differentiated to progenitors and phenotypic stem cells as described, except 100 nM of LY2228820 was added to Differentiation Medium 1. Cells were then harvested as described and subjected to flow cytometry and FACS analysis using fluorescently labeled antibodies for CD45, CD43, CD34, CD38, CD90, CD45RA as described. […]
# [7] = system: iPS cells; test: LY2228820 added to Differentiation Medium 1, flow cytometry, iPS cells; type: cell-based, human; details: 100 nM LY2228820; FIG. 8B
# Protocol: as §2, §3
molecule,measurement,setting,value
O=C(/C=C/c1ccc(O)c(O)c1)c1ccc(O)cc1O [butein],suitability of generated phenotypic HSC cells for in vivo engraftment,[1],suitable for successful in vivo engraftment
same,enzyme activity for protection against reactive oxygen species (ROS),[2],increased
same,"CD34+, CD38− cells","[3]; added independently to Differentiation Medium 1: sodium selenite 100 nM, butein 10 uM",increased
same,total number of cells,[3]; butein 10 uM,increased
C/C(=C/C=C/C(C)=C/C(=O)O)c1cc(C(C)(C)C)cc(C(C)(C)C)c1OCC(F)F [LG101506],suitability of generated phenotypic HSC cells for in vivo engraftment,[1],suitable for successful in vivo engraftment
same,CFU cellularity and output,[4],enhances
same,total output of CD90+ cells,"[3]; LG101506 1 uM in Differentiation Medium 1, ES, iPS",increases
same,total number of cells,[3]; butein 10 uM,increased
CCCC(CCC)C(=O)O [valproic acid],suitability of generated phenotypic HSC cells for in vivo engraftment,[1],suitable for successful in vivo engraftment
same,CD34+CD38− cells that were CD90+,[3]; Differentiation Medium 1 supplemented with 1 mM of valproic acid,100%
same,total number of cells,[3]; butein 10 uM,increased
NC[C@H](O)c1ccc(O)c(O)c1 [norepinephrine],suitability of generated phenotypic HSC cells for in vivo engraftment,[1],suitable for successful in vivo engraftment
same,colony forming ability,"[4]; hES-derived hematopoietic cells, norepinephrine, data not shown",has an effect
same,increase in HSC number,"[5]; hES-derived hematopoietic cells, norepinephrine in Differentiation Medium 1",150%
same,"fold improvement of numbers of phenotypic hematopoietic stem cells (CD45+, CD34+, CD43+, CD38−, CD90+, CD45RA−)","[5]; norepinephrine 10 uM or 300 uM in Differentiation Medium 1, FIG. 9C",statistically significant increases
same,total viable blood cells (CD45+),"[5]; norepinephrine 10 uM or 300 uM, FIG. 9A",insignificant improvements
same,"intermediate cells (CD45+, CD43+, CD34+, CD38−)","[5]; norepinephrine 10 uM or 300 uM, FIG. 9B",insignificant improvements
CC(C)(C)Cn1c(N)nc2ccc(-c3[nH]c(C(C)(C)C)nc3-c3ccc(F)cc3)nc21 [LY2228820],"increase of phenotypic hematopoietic stem cell phenotype (CD45+, CD43+, CD34+, CD38−, CD90+, CD45RA−) over DEAB-containing Differentiation Medium 1 control",[6],~20%
same,"levels of the intermittent progenitor phenotype (CD45+, CD43+, CD34+, CD38−)",[6],unaffected
same,suitability of generated phenotypic HSC cells for in vivo engraftment,[1],suitable for successful in vivo engraftment
same,size of CFU colonies,[4],increases CFU size
same,numbers of all cells with the progenitor and phenotypic stem cell phenotypes,[7],increased
"Cripto: protein expressed in hypoxic endosteal niche cells (protein, UniProt P13385 31-150, looked up) Protein Cripto: LGHQEFARPSRGYLAFRDDSIWPQEEPAIRPRSSQRVPPMGIQHSKELNRTCCLNGGTCMLGSFCACPPSFYGRNCEHDVRKENCGSVPHDTWLPKKCSLCKCWHGQLRCFPQAFLPGCD",suitability of generated phenotypic HSC cells for in vivo engraftment,[1],suitable for successful in vivo engraftment
same,size of CFU colonies,[4],increases the size
